Reference: the CheMixHub ionic liquid set
± gives the uncertainty stated by the source.

Experiment: xn = mol fraction of the nth substance listed
Details: 101.3 kPa

Q: Which electrical conductivity (308.15 K, x1 = 0.5022) does the source give for `CCCCCC[NH2+]CCN.O=S(=O)([N-]S(=O)(=O)C(F)(F)F)C(F)(F)F` + O here?
A: The electrical conductivity was 0.182 ± 0.004 S/m.

Q: And the viscosity (308.15 K, x1 = 0.5022)?
A: The viscosity was 77.8 ± 2.4 mPa·s.

Q: What about the electrical conductivity (318.15 K, x1 = 0.5763) of the same compound?
A: The electrical conductivity was 0.188 ± 0.0038 S/m.

Q: What about the viscosity (318.15 K, x1 = 0.5763) of the same compound?
A: The viscosity was 50.3 ± 1.4 mPa·s.

Q: What about the electrical conductivity (323.15 K, x1 = 0.401) of the same compound?
A: The electrical conductivity was 0.589 ± 0.012 S/m.

Q: And the viscosity (323.15 K, x1 = 0.401)?
A: Its viscosity is 21.2 ± 0.6 mPa·s.

Q: What about the electrical conductivity (328.15 K, x1 = 0.5022) of the same compound?
A: Its electrical conductivity is 0.42 ± 0.01 S/m.

Q: And the viscosity (328.15 K, x1 = 0.5022)?
A: The viscosity was 29.1 ± 0.8 mPa·s.

Q: What about the electrical conductivity (328.15 K, x1 = 0.6828) of the same compound?
A: The electrical conductivity was 0.233 ± 0.005 S/m.

Q: What about the viscosity (328.15 K, x1 = 0.6828) of the same compound?
A: Its viscosity is 45.5 ± 1.3 mPa·s.

Q: What about the electrical conductivity (338.15 K, x1 = 0.5022) of the same compound?
A: The electrical conductivity was 0.6 ± 0.1 S/m.

Q: And the viscosity (338.15 K, x1 = 0.5022)?
A: The viscosity was 19.7 ± 0.5 mPa·s.

Q: And the electrical conductivity (343.15 K, x1 = 0.6828)?
A: The electrical conductivity was 0.428 ± 0.009 S/m.

Q: And the viscosity (343.15 K, x1 = 0.6828)?
A: The viscosity was 24.2 ± 0.7 mPa·s.

Q: What about the electrical conductivity (343.15 K, x1 = 0.8154) of the same compound?
A: The electrical conductivity was 0.321 ± 0.006 S/m.

Q: What about the viscosity (343.15 K, x1 = 0.8154) of the same compound?
A: The viscosity was 25.9 ± 0.7 mPa·s.

Q: What about the electrical conductivity (348.15 K, x1 = 0.401) of the same compound?
A: Its electrical conductivity is 1.29 ± 0.03 S/m.

Q: And the viscosity (348.15 K, x1 = 0.401)?
A: Its viscosity is 9 ± 0.24 mPa·s.

Q: What about the electrical conductivity (348.15 K, x1 = 0.5763) of the same compound?
A: Its electrical conductivity is 0.625 ± 0.013 S/m.

Q: What about the viscosity (348.15 K, x1 = 0.5763) of the same compound?
A: Its viscosity is 15 ± 0.4 mPa·s.

Q: What about the electrical conductivity (353.15 K, x1 = 0.5763) of the same compound?
A: The electrical conductivity was 0.729 ± 0.015 S/m.

Q: What about the viscosity (353.15 K, x1 = 0.5763) of the same compound?
A: The viscosity was 12.8 ± 0.3 mPa·s.
